PubChem BioAssay AID272 (DTP/NCI, 2004)
“And” between values parts separate entries of the source, which are not always exact repeats. Equal values may be shown once. Records with an inconclusive call do not appear.

Test system: Lewis lung carcinoma i.m., BDF1 mice, T/C %
Assay: NCI In Vivo Anticancer Drug Screen. Data for tumor model Lewis Lung Carcinoma (intramuscular) in B6D2F1 (BDF1) mice
How it was run: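 Mice carrying transplantable tumours received test compound. Survival or tumour size was recorded and expressed as the treated-group value (T) divided by the vehicle-treated control-group value (C).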

[1] = endpoint: median survival time, dose: 6.0 mg/kg/injection, schedule: Q01DX011 (ip), vehicle: saline, higher = longer survival
[2] = endpoint: mean tumor weight (est.), dose: 25.0 mg/kg/injection, schedule: Q01DX011 (ip), vehicle: saline with Tween-80, higher = larger tumour
[3] = endpoint: mean tumor weight (est.), dose: 50.0 mg/kg/injection, schedule: Q01DX011 (ip), vehicle: saline with Tween-80, higher = larger tumour
[4] = endpoint: median survival time, dose: 25.0 mg/kg/injection, schedule: Q01DX011 (ip), vehicle: saline with Tween-80, higher = longer survival
[5] = endpoint: median survival time, dose: 50.0 mg/kg/injection, schedule: Q01DX011 (ip), vehicle: saline with Tween-80, higher = longer survival

CCCCCCCCCCCCCCCC[N+](C)(C)c1nc(Cl)nc(Cl)n1
T/C (endpoint: mean tumor weight (est.), dose: 7.5 mg/kg/injection, schedule: Q01DX011 (ip), vehicle: saline, higher = larger tumour): 92 % of control
T/C (endpoint: mean tumor weight (est.), dose: 15.0 mg/kg/injection, schedule: Q01DX011 (ip), vehicle: saline, higher = larger tumour): 65 % of control
T/C (endpoint: median survival time, dose: 7.5 mg/kg/injection, schedule: Q01DX011 (ip), vehicle: saline, higher = longer survival): 106 % of control
T/C (endpoint: median survival time, dose: 15.0 mg/kg/injection, schedule: Q01DX011 (ip), vehicle: saline, higher = longer survival): 112 % of control

O=c1n(CC2CO2)c(=O)n(CC2CO2)c(=O)n1CC1CO1 (configuration not stated)
T/C (endpoint: median survival time, dose: 20.0 mg/kg/injection, schedule: Q01DX011 (ip), vehicle: saline, higher = longer survival): 115 % of control
T/C (endpoint: median survival time, dose: 30.0 mg/kg/injection, schedule: Q01DX011 (ip), vehicle: saline, higher = longer survival): 120 % of control and 122 % of control
T/C (endpoint: median survival time, dose: 40.0 mg/kg/injection, schedule: Q01DX011 (ip), vehicle: saline, higher = longer survival): 117 % of control and 124 % of control
T/C (endpoint: median survival time, dose: 70.0 mg/kg/injection, schedule: Q01DX011 (ip), vehicle: saline, higher = longer survival): 114 % of control
T/C (endpoint: median survival time, dose: 80.0 mg/kg/injection, schedule: Q01DX011 (ip), vehicle: saline, higher = longer survival): 90 % of control
T/C (endpoint: median survival time, dose: 90.0 mg/kg/injection, schedule: Q01DX011 (ip), vehicle: saline, higher = longer survival): 115 % of control

CCCCn1cnc2c(=S)nc[nH]c21
T/C (endpoint: mean tumor weight, dose: 1.56 mg/kg/injection, schedule: Q01DX011 (ip), vehicle: other, higher = larger tumour): 89 % of control
T/C (endpoint: mean tumor weight, dose: 6.25 mg/kg/injection, schedule: Q01DX011 (ip), vehicle: other, higher = larger tumour): 85 % of control
T/C (endpoint: median survival time, dose: 1.56 mg/kg/injection, schedule: Q01DX011 (ip), vehicle: other, higher = longer survival): 94 % of control and 104 % of control
T/C (endpoint: median survival time, dose: 3.12 mg/kg/injection, schedule: Q01DX011 (ip), vehicle: other, higher = longer survival): 100 % of control
T/C (endpoint: median survival time, dose: 6.25 mg/kg/injection, schedule: Q01DX011 (ip), vehicle: other, higher = longer survival): 97 % of control and 108 % of control
T/C (endpoint: median survival time, dose: 12.5 mg/kg/injection, schedule: Q01DX011 (ip), vehicle: other, higher = longer survival): 110 % of control
T/C (endpoint: median survival time, dose: 25.0 mg/kg/injection, schedule: Q01DX011 (ip), vehicle: other, higher = longer survival): 116 % of control

CC(=O)OC1CC(OC2C(O)CC(OC3C(O)CC(OC4CCC5(C)C(CCC6C5CCC5(C)C(C7=CC(=O)OC7)C(O)CC65O)C4)OC3C)OC2C)OC(C)C1OC1OC(CO)C(O)C(O)C1O (configuration not stated)
T/C (endpoint: median survival time, dose: 3.0 mg/kg/injection, schedule: Q01DX011 (ip), vehicle: saline, higher = longer survival): 106 % of control
T/C [1]: 110 % of control
T/C (endpoint: median survival time, dose: 12.0 mg/kg/injection, schedule: Q01DX011 (ip), vehicle: saline, higher = longer survival): 102 % of control
T/C (endpoint: median survival time, dose: 24.0 mg/kg/injection, schedule: Q01DX011 (ip), vehicle: saline, higher = longer survival): 104 % of control
T/C (endpoint: median survival time, dose: 48.0 mg/kg/injection, schedule: Q01DX011 (ip), vehicle: saline, higher = longer survival): 102 % of control

COc1cccc2c1C(=O)c1c(O)c3c(c(O)c1C2=O)C[C@@](O)(C(C)=O)C[C@@H]3OC1CC(N)C(O)C(C)O1 (some centres not stated)
T/C (endpoint: median survival time, dose: 0.25 mg/kg/injection, schedule: Q01DX011 (ip), vehicle: water, higher = longer survival): 93 % of control
T/C (endpoint: median survival time, dose: 0.5 mg/kg/injection, schedule: Q01DX011 (ip), vehicle: water, higher = longer survival): 106 % of control and 117 % of control
T/C (endpoint: median survival time, dose: 1.0 mg/kg/injection, schedule: Q01DX011 (ip), vehicle: water, higher = longer survival): 107 % of control

CCOC(=O)c1nc(C)[nH]c(=O)c1C
T/C (endpoint: median survival time, dose: 4.0 mg/kg/injection, schedule: Q01DX009 (ip), vehicle: water, higher = longer survival): 94 % of control
T/C (endpoint: median survival time, dose: 8.0 mg/kg/injection, schedule: Q01DX009 (ip), vehicle: water, higher = longer survival): 109 % of control
T/C (endpoint: median survival time, dose: 16.0 mg/kg/injection, schedule: Q01DX009 (ip), vehicle: water, higher = longer survival): 104 % of control
T/C (endpoint: median survival time, dose: 64.0 mg/kg/injection, schedule: Q01DX009 (ip), vehicle: water, higher = longer survival): 100 % of control

COC(=O)Nc1nc2ccc(C(=O)c3cccs3)cc2[nH]1
T/C (endpoint: median survival time, dose: 35.0 mg/kg/injection, schedule: Q03DX008 (ip), vehicle: other, higher = longer survival): 101 % of control
T/C (endpoint: median survival time, dose: 70.0 mg/kg/injection, schedule: Q03DX008 (ip), vehicle: other, higher = longer survival): 86 % of control

C[C@]12CC[C@@H]3c4ccc(O)cc4CC[C@H]3[C@@H]1C[C@@H](O)[C@@H]2O
T/C (endpoint: mean tumor weight, dose: 3.13 mg/kg/injection, schedule: Q01DX011 (ip), vehicle: saline with Tween-80, higher = larger tumour): 62 % of control
T/C (endpoint: median survival time, dose: 0.78 mg/kg/injection, schedule: Q01DX011 (ip), vehicle: saline with Tween-80, higher = longer survival): 108 % of control
T/C (endpoint: median survival time, dose: 1.56 mg/kg/injection, schedule: Q01DX011 (ip), vehicle: saline with Tween-80, higher = longer survival): 98 % of control
T/C (endpoint: median survival time, dose: 3.12 mg/kg/injection, schedule: Q01DX011 (ip), vehicle: saline with Tween-80, higher = longer survival): 112 % of control
T/C (endpoint: median survival time, dose: 6.25 mg/kg/injection, schedule: Q01DX011 (ip), vehicle: saline with Tween-80, higher = longer survival): 110 % of control

Nc1ncnc2c1ncn2Cc1ccccc1
T/C (endpoint: mean tumor weight (est.), dose: 12.5 mg/kg/injection, schedule: Q01DX011 (ip), vehicle: saline with Tween-80, higher = larger tumour): 101 % of control
T/C [2]: 102 % of control
T/C [3]: 76 % of control
T/C (endpoint: mean tumor weight (est.), dose: 100.0 mg/kg/injection, schedule: Q01DX011 (ip), vehicle: saline with Tween-80, higher = larger tumour): 67 % of control
T/C (endpoint: median survival time, dose: 12.5 mg/kg/injection, schedule: Q01DX011 (ip), vehicle: saline with Tween-80, higher = longer survival): 89 % of control
T/C [4]: 100 % of control
T/C [5]: 93 % of control
T/C (endpoint: median survival time, dose: 100.0 mg/kg/injection, schedule: Q01DX011 (ip), vehicle: saline with Tween-80, higher = longer survival): 97 % of control

N=c1ccn2c(n1)OC1C(OP(=O)(O)O)C(CO)OC12 (configuration not stated)
T/C (endpoint: mean tumor weight (est.), dose: 12.5 mg/kg/injection, schedule: Q01DX011 (oral), vehicle: water, higher = larger tumour): 79 % of control
T/C (endpoint: mean tumor weight (est.), dose: 25.0 mg/kg/injection, schedule: Q01DX011 (oral), vehicle: water, higher = larger tumour): 71 % of control
T/C (endpoint: mean tumor weight (est.), dose: 50.0 mg/kg/injection, schedule: Q01DX011 (oral), vehicle: water, higher = larger tumour): 13 % of control
T/C (endpoint: mean tumor weight (est.), dose: 100.0 mg/kg/injection, schedule: Q01DX011 (oral), vehicle: water, higher = larger tumour): 12 % of control
T/C (endpoint: mean tumor weight (est.), dose: 200.0 mg/kg/injection, schedule: Q01DX011 (oral), vehicle: water, higher = larger tumour): 12 % of control
T/C (endpoint: median survival time, dose: 12.5 mg/kg/injection, schedule: Q01DX011 (oral), vehicle: water, higher = longer survival): 109 % of control
T/C (endpoint: median survival time, dose: 25.0 mg/kg/injection, schedule: Q01DX011 (oral), vehicle: water, higher = longer survival): 105 % of control
T/C (endpoint: median survival time, dose: 50.0 mg/kg/injection, schedule: Q01DX011 (oral), vehicle: water, higher = longer survival): 118 % of control
T/C (endpoint: median survival time, dose: 100.0 mg/kg/injection, schedule: Q01DX011 (oral), vehicle: water, higher = longer survival): 120 % of control
T/C (endpoint: median survival time, dose: 200.0 mg/kg/injection, schedule: Q01DX011 (oral), vehicle: water, higher = longer survival): 116 % of control

CS(=O)(=O)c1cc(C(F)(F)F)cc([N+](=O)[O-])c1Cl
T/C [2]: 108 % of control
T/C [3]: 63 % of control
T/C [4]: 115 % of control
T/C [5]: 111 % of control

Cc1cc(/C=C/c2cc[n+](C)c3ccccc23)c(O)c2ncccc12
T/C (endpoint: mean tumor weight, dose: 6.0 mg/kg/injection, schedule: Q01DX011 (ip), vehicle: saline, higher = larger tumour): 76 % of control
T/C [1]: 102 % of control

Nc1nc(N)c2nc(CNc3ccc(C(=O)NC(CCC(=O)O)C(=O)O)cc3)cnc2n1 (configuration not stated)
T/C (endpoint: median survival time, dose: 4.0 micrograms/kg/injection, schedule: Q01DX011 (ip), vehicle: other, higher = longer survival): 97 % of control
T/C (endpoint: median survival time, dose: 8.0 micrograms/kg/injection, schedule: Q01DX011 (ip), vehicle: other, higher = longer survival): 86 % of control
T/C (endpoint: median survival time, dose: 16.0 micrograms/kg/injection, schedule: Q01DX011 (ip), vehicle: other, higher = longer survival): 100 % of control
T/C (endpoint: median survival time, dose: 32.0 micrograms/kg/injection, schedule: Q01DX011 (ip), vehicle: other, higher = longer survival): 109 % of control
T/C (endpoint: median survival time, dose: 65.0 micrograms/kg/injection, schedule: Q01DX011 (ip), vehicle: other, higher = longer survival): 95 % of control

Nc1n[nH]c(N)n1
T/C (endpoint: mean tumor weight, dose: 125.0 mg/kg/injection, schedule: Q03HX024 (ip), vehicle: water, higher = larger tumour): 89 % of control
T/C (endpoint: mean tumor weight, dose: 250.0 mg/kg/injection, schedule: Q03HX024 (ip), vehicle: water, higher = larger tumour): 81 % of control
T/C (endpoint: mean tumor weight, dose: 750.0 mg/kg/injection, schedule: Q01DX009 (ip), vehicle: water, higher = larger tumour): 72 % of control
T/C (endpoint: mean tumor weight, dose: 750.0 mg/kg/injection, schedule: Q01DX011 (ip), vehicle: water, higher = larger tumour): 68 % of control
T/C (endpoint: median survival time, dose: 375.0 mg/kg/injection, schedule: Q01DX009 (ip), vehicle: water, higher = longer survival): 116 % of control
T/C (endpoint: median survival time, dose: 375.0 mg/kg/injection, schedule: Q01DX011 (ip), vehicle: water, higher = longer survival): 110 % of control
T/C (endpoint: median survival time, dose: 750.0 mg/kg/injection, schedule: Q01DX009 (ip), vehicle: water, higher = longer survival): 124 % of control
T/C (endpoint: median survival time, dose: 750.0 mg/kg/injection, schedule: Q01DX011 (ip), vehicle: water, higher = longer survival): 104 % of control
T/C (endpoint: median survival time, dose: 1500.0 mg/kg/injection, schedule: Q01DX011 (ip), vehicle: water, higher = longer survival): 124 % of control

COC(=O)C[C@](O)(CCCC(C)(C)O)C(=O)O[C@@H]1C(OC)=C[C@]23CCCN2CCc2cc4c(cc2[C@H]13)OCO4
T/C (endpoint: mean tumor weight (est.), dose: 0.25 mg/kg/injection, schedule: Q01DX011 (ip), vehicle: saline, higher = larger tumour): 60 % of control
T/C (endpoint: mean tumor weight (est.), dose: 0.5 mg/kg/injection, schedule: Q01DX011 (ip), vehicle: saline, higher = larger tumour): 57 % of control
T/C (endpoint: median survival time, dose: 0.25 mg/kg/injection, schedule: Q01DX011 (ip), vehicle: saline, higher = longer survival): 93 % of control
